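Step 1: Grow cells in 96-well plates. Step 2: Expose to compound for 48 hours at 5 concentrations. Step 3: Interpolate endpoints linearly; if unreached, use highest concentration. GI50 marks 50% less growth. Definition used: TGI = concentration required for complete inhibition of growth.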
Tests used:
Assay in all cases: DTP human tumour cell line panel, 48 h; in the data active = GI50 below about 0.43 µM; inactive = the rest
CAKI-1 renal = system: CAKI-1 renal
CCRF-CEM leukemia = system: CCRF-CEM leukemia
HCT-116 colon = system: HCT-116 colon
NCI-H226 lung = system: NCI-H226 lung
NCI-H23 lung = system: NCI-H23 lung
NCI-H460 lung = system: NCI-H460 lung
SF-295 CNS = system: SF-295 CNS
SNB-75 CNS = system: SNB-75 CNS
TK-10 renal = system: TK-10 renal
HOP-62 NSCLC = system: HOP-62 NSCLC

CCOC(=O)C/C(N)=C(\C#N)C(=O)OCC
> 100 µM: TGI (CAKI-1 renal) | TGI (CCRF-CEM leukemia) | TGI (HCT-116 colon) | TGI (NCI-H226 lung) | TGI (NCI-H23 lung) | TGI (NCI-H460 lung) | TGI (SF-295 CNS) | TGI (SNB-75 CNS) | TGI (TK-10 renal)

O=c1c(-c2ccc3c(c2)OCO3)coc2c(CO)c(O)ccc12
6.18 µM: TGI (SF-295 CNS)
6.78 µM: TGI (TK-10 renal)
inactive: GI50 (CCRF-CEM leukemia) 3.44 µM | GI50 (HCT-116 colon) 2 µM | GI50 (HOP-62 NSCLC) 2.07 µM | GI50 (NCI-H226 lung) 1.81 µM | GI50 (NCI-H23 lung) 4.87 µM | GI50 (NCI-H460 lung) 2.6 µM | GI50 (SF-295 CNS) 2.2 µM | GI50 (SNB-75 CNS) 2.39 µM | GI50 (TK-10 renal) 2.28 µM
24.5 µM: TGI (NCI-H23 lung)
5.01 µM: TGI (HOP-62 NSCLC)
7.85 µM: TGI (NCI-H460 lung)
4.94 µM: TGI (HCT-116 colon)
4.46 µM: TGI (NCI-H226 lung)
> 100 µM: TGI (CCRF-CEM leukemia)
7.43 µM: TGI (SNB-75 CNS)

CC(N)CN.CC(N)CN.[Cl-].[O]=[Os+2]=[O] (stereo not drawn)
inactive: GI50 (CAKI-1 renal) > 100 µM | GI50 (HCT-116 colon) 36.5 µM | GI50 (NCI-H226 lung) > 100 µM | GI50 (NCI-H23 lung) > 100 µM | GI50 (NCI-H460 lung) > 100 µM | GI50 (SF-295 CNS) > 100 µM | GI50 (SNB-75 CNS) > 100 µM | GI50 (TK-10 renal) > 100 µM
> 100 µM: TGI (CAKI-1 renal) | TGI (HCT-116 colon) | TGI (NCI-H226 lung) | TGI (NCI-H23 lung) | TGI (NCI-H460 lung) | TGI (SF-295 CNS) | TGI (SNB-75 CNS) | TGI (TK-10 renal)

COC(=O)[C@H]1CC(=O)C=C2CCCC21 (stereo partly drawn)
> 100 µM: TGI (CAKI-1 renal) | TGI (CCRF-CEM leukemia) | TGI (HCT-116 colon) | TGI (HOP-62 NSCLC) | TGI (NCI-H23 lung) | TGI (NCI-H460 lung) | TGI (SF-295 CNS) | TGI (SNB-75 CNS) | TGI (TK-10 renal)

COc1ccc(C2c3cc4c(c(OC)c3CC3OCC(=O)C32)OCO4)cc1OC (stereo not drawn)
11.3 µM: TGI (CAKI-1 renal)
< 0.01 µM: TGI (CCRF-CEM leukemia) | TGI (SF-295 CNS)
active: GI50 (CAKI-1 renal) < 0.01 µM | GI50 (CCRF-CEM leukemia) < 0.01 µM | GI50 (HCT-116 colon) < 0.01 µM | GI50 (NCI-H226 lung) < 0.01 µM | GI50 (NCI-H23 lung) < 0.01 µM | GI50 (NCI-H460 lung) < 0.01 µM | GI50 (SF-295 CNS) < 0.01 µM
14.3 µM: TGI (NCI-H460 lung)
> 100 µM: TGI (NCI-H226 lung) | TGI (TK-10 renal)

CC1(C)C(=O)CCC(=O)C(C)(C)C2=CC=C(O2)C(C)(C)C(=O)CCC(=O)C(C)(C)C2=CC=C1O2
> 100 µM: TGI (CAKI-1 renal) | TGI (CCRF-CEM leukemia) | TGI (HCT-116 colon) | TGI (HOP-62 NSCLC) | TGI (NCI-H226 lung) | TGI (NCI-H23 lung) | TGI (NCI-H460 lung) | TGI (SF-295 CNS) | TGI (TK-10 renal)

Cc1cc(NS(=O)(=O)c2ccc(NC(=O)COc3ccc(-c4cc5ccccc5[nH]4)cc3)cc2)no1
7.74 µM: TGI (HOP-62 NSCLC)
5.01 µM: TGI (HCT-116 colon)
inactive: GI50 (CAKI-1 renal) 2.57 µM | GI50 (CCRF-CEM leukemia) 2.13 µM | GI50 (HCT-116 colon) 1.84 µM | GI50 (HOP-62 NSCLC) 2.95 µM | GI50 (NCI-H226 lung) 2.14 µM | GI50 (NCI-H23 lung) 1.91 µM | GI50 (SF-295 CNS) 1.94 µM | GI50 (SNB-75 CNS) 1.5 µM | GI50 (TK-10 renal) 2.04 µM
5 µM: TGI (NCI-H23 lung)
5.45 µM: TGI (TK-10 renal)
9.88 µM: TGI (NCI-H226 lung)
4.91 µM: TGI (SF-295 CNS)
4.68 µM: TGI (SNB-75 CNS)
> 100 µM: TGI (CCRF-CEM leukemia)
9.28 µM: TGI (CAKI-1 renal)

CC(=O)Nc1cc(C(c2ccccc2)c2ccccc2)cc(C(c2ccccc2)c2ccccc2)c1C
> 100 µM: TGI (CAKI-1 renal) | TGI (HCT-116 colon) | TGI (HOP-62 NSCLC) | TGI (NCI-H226 lung) | TGI (NCI-H23 lung) | TGI (NCI-H460 lung) | TGI (SNB-75 CNS)
inactive: GI50 (CAKI-1 renal) > 100 µM | GI50 (HCT-116 colon) 3.28 µM | GI50 (HOP-62 NSCLC) > 100 µM | GI50 (NCI-H226 lung) 6.8 µM | GI50 (NCI-H23 lung) 6.22 µM | GI50 (NCI-H460 lung) 7.49 µM | GI50 (SF-295 CNS) 2.64 µM | GI50 (SNB-75 CNS) 21.4 µM
7.49 µM: TGI (SF-295 CNS)

Source: PubChem BioAssay (NCI)
